In article PMC8123555, “Precision targeting of the plasminogen activator inhibitor‐1 mechanism increases efficacy of fibrinolytic therapy in empyema” (Physiological Reports, 2021):

What was measured:
Format in all cases: in vivo, rabbit
[1] = tested on: plasminogen activating activity in pleural fluid; test: Intrapleural inactivation of tPA and uPA plasminogen activating activity, empyema; conditions: infectious pleural injury
Description: (§1) Amidolytic activity was measured in clear 96‐well flat bottom plates from Costar (Corning Inc.) using a Synergy™ HT Hybrid Reader (BioTek, Winooski, VT). Amidolytic activity was calculated from the initial slopes of the time traces of the change in absorbance at 405 nm upon hydrolysis of chromogenic as described previously (Komissarov et al., 2009, 2013). The plasminogen activating activity was determined from the relative rate of activation of exogenous Glu‐plasminogen added to the reaction mixture containing 0.1–0.5 µl of pleural fluid in 0.1 ml of Hepes buffer solution with BSA (1 mg/ml) as previously described (Florova et al., 2013, 2018). The reaction mixtures (0.1 ml in black 96‐well flat bottom plates from Costar) contained 100 nM of human Glu‐plasminogen with 0.2 mM of SN‐5 plasmin fluorogenic substrate (HTI, Essex Junction, VT). Plasmin activity was measured by recording changes in the fluorescence emission at 470 nm (F470) with time (excitation at 352 nm) using a Synergy™ HT Hybrid Reader (BioTek, Winooski, VT). The level of plasminogen activating activity [PA] was calculated from slopes of linear dependences of F470 from square of time (t^2) (F470 = A [PA] t^2 + B; where A and B are constants), and results of measurements of standards with known concentrations of tcuPA and tctPA as previously described (Komissarov et al., 2009, 2013). […]

[2] = tested on: plasminogen activating activity in pleural fluid; test: Intrapleural inactivation of tPA and uPA plasminogen activating activity, TCN-induced injury; conditions: during PAI-1-TFT of chemically induced pleural injury; slower phase, 10-40 min
Description: as §1

[3] = tested on: Streptococcus pneumoniae induced empyema; test: Fibrinolytic therapy of S. pneumoniae induced empyema in rabbits (GLIS, pleural thickening, WBC differential)
Description: All animal procedures were approved by the Institutional Animal Care and Use Committee at The University of Texas Health Science Center at Tyler (IACUC protocols 499,616,617). Studies used female, pathogen‐free New Zealand white rabbits (3.0–3.6 kg; average age 18 weeks) from Charles River Laboratories (Wilmington, MA). These studies required a total of 107 rabbits, 43 for the model of TCN‐induced pleural injury and 64 for the model of empyema. […] Briefly, a 3 ml mixture of TCN in ascorbic acid (20 mg/ml TCN (T3258, Sigma‐Aldrich), 2.5 mg/ml ascorbic acid (A7506, Sigma‐Aldrich) and lidocaine (1 mg/ml, UTHCT Compounding Pharmacy), was delivered by intrapleural injection. A model of acute empyema in rabbits was induced as described previously (Komissarov et al., 2016). Briefly, 1–5 × 10^8 cfu of S. pneumoniae (D39 strain, National Collection of Type Cultures, Salisbury UK) in 3 ml of 0.5% brain‐heart infusion agar (BD 238400, BD Diagnostic Systems) was delivered by intrapleural injection. Clavomox (10 mg/kg, subcutaneous, daily for 1–3 days as clinically indicated by Attending Veterinarian) (10000485, Zoetis) was started at 28–30 h post‐infection. Accumulation of pleural fluid and fibrin deposition was monitored using ultrasonography; detailed in the ultrasonography subsection. After 48 or 72 h for TCN‐induced pleural injury and empyema, respectively, intrapleural therapeutics were administered depending on treatment group via an 18‐gauge catheter, which was flushed with 0.5 ml PBS. In all experiments, samples of pleural fluids (0.5 ml) from each rabbit were collected prior to and at 10, 20, and 40 min after PAI‐1‐TFT and processed for later analysis (Florova et al., 2015; Karandashova et al., 2013; Komissarov et al., 2013, 2016). Anesthesia, postoperative pain medication, and animal care were provided as reported previously (Florova et al., 2015; Karandashova et al., 2013; Komissarov et al., 2013, 2016). with details provided in the supplement. Animals were monitored carefully for signs of distress, pain, and worsening clinical status. Euthanasia was accomplished using intravenous injection of 1 ml of commercial euthanasia solution (sodium pentobarbital 390 mg/ml and phenytoin 50 mg/ml) followed by exsanguination.
Development of pleural injury was monitored via ultrasonography. Briefly, B‐mode ultrasonography of the chest was performed (Komissarov et al., 2013, 2015) using a Logiq e system (GE Healthcare, Milwaukee, WI) using R5.2.x software and a multifrequency transducer model 12L‐RS at a working frequency of 10 MHz, as previously described (Komissarov et al., 2016).
For each animal, gross lung injury scores (GLIS) were calculated as previously described (Florova et al., 2015; Karandashova et al., 2013; Komissarov et al., 2013). PAI‐1‐TFT was considered successful when GLIS ≤10. Multiple fibrin webs or sheets connecting the visceral and parietal pleura or “too numerous to count” (TNTC) strands and a fibrinous lung coating correlated with a GLIS = 50. Pleural thickening was measured using morphometry, as previously described (Komissarov et al., 2016).

[4] = plasminogen activator 0.5 mg/kg alone, empyema

| Substance | kobs of intrapleural inactivation ([1]; with 2.0–8.0 mg/kg DSP) [min⁻¹] | kobs of intrapleural inactivation of plasminogen activating activity [2] [min⁻¹] | Outcome of fibrinolytic therapy (GLIS) [3, 4] | Outcome of fibrinolytic therapy (GLIS) ([3]; sctPA 0.25 mg/kg alone, acute empyema) | GLIS of representative animal ([3]; sctPA 0.25 mg/kg alone, photograph 24 h after treatment) | Minimal effective dose (MED) of sctPA with DSP ([3]; with 8.0 mg/kg DSP, acute empyema) [mg/kg] | kobs of intrapleural inactivation ([1]; with 2.0 mg/kg DSP) [min⁻¹] |
| --- | --- | --- | --- | --- | --- | --- | --- |
| Alteplase [sctPA, reference compound] | 0.024 ± 0.010 | 0.02 to 0.05 | ineffective | ineffective | 50 | 0.25 | – |
| Prourokinase [scuPA] | – | 0.02 to 0.05 | ineffective | – | – | – | 0.014 ± 0.008 |
